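Method: 48-hour compound exposure of cells in 96-well plates, five concentrations, linear interpolation of endpoints. Here, GI50 denotes the concentration required for 50% inhibition of growth.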 Active and inactive are the calls of the source. No stated cut-off is given here; in the data, active = GI50 up to about 1.1 µM and inactive = higher.
Columns and labels:
Experiment in all cases: inhibition of tumour cell growth, NCI panel, 48 h
786-0 = system: 786-0
A498 = system: A498
A549 = system: A549
ACHN = system: ACHN
CAKI-1 = system: CAKI-1
CCRF-CEM = system: CCRF-CEM
COLO 205 = system: COLO 205
DLD-1 = system: DLD-1
DMS-114 = system: DMS-114
DMS-273 = system: DMS-273
EKVX = system: EKVX
HCC 2998 = system: HCC 2998
HCT-116 = system: HCT-116
HCT-15 = system: HCT-15
HL-60 = system: HL-60
HOP-62 = system: HOP-62
HOP-92 = system: HOP-92
HT-29 = system: HT-29
IGROV-1 = system: IGROV-1
K562 = system: K562
KM-20L2 = system: KM-20L2
KM12 = system: KM12
LOX IMVI = system: LOX IMVI
LXFL 529 = system: LXFL 529
M14 = system: M14
M19-MEL = system: M19-MEL
MOLT-4 = system: MOLT-4
Malme-3M = system: Malme-3M
NCI-H226 = system: NCI-H226
NCI-H23 = system: NCI-H23
NCI-H460 = system: NCI-H460
NCI-H522 = system: NCI-H522
OVCAR-3 = system: OVCAR-3
OVCAR-4 = system: OVCAR-4
OVCAR-5 = system: OVCAR-5
RPMI-8226 = system: RPMI-8226
RXF 393 = system: RXF 393
RXF 631 = system: RXF 631
SF-268 = system: SF-268
SF-295 = system: SF-295
SF-539 = system: SF-539
SK-MEL-28 = system: SK-MEL-28
SK-MEL-2 = system: SK-MEL-2
SK-MEL-5 = system: SK-MEL-5
SK-OV-3 = system: SK-OV-3
SN12C = system: SN12C
SNB-19 = system: SNB-19
SNB-75 = system: SNB-75
SNB-78 = system: SNB-78
SR = system: SR
SW-620 = system: SW-620
TK-10 = system: TK-10
U-251 = system: U-251
UO-31 = system: UO-31

Measured: GI50

CC(C)(CCl)NC(=O)c1cccc(C(=O)NC(C)(C)CCl)n1
inactive: 786-0 > 100 µM | A498 > 100 µM | A549 > 100 µM | ACHN > 100 µM | CAKI-1 > 100 µM | CCRF-CEM > 100 µM | COLO 205 > 100 µM | DLD-1 > 100 µM | DMS-114 > 100 µM | DMS-273 > 100 µM | EKVX > 100 µM | HCC 2998 > 100 µM | HCT-116 > 100 µM | HL-60 > 100 µM | HOP-62 > 100 µM | HOP-92 > 100 µM | HT-29 > 100 µM | IGROV-1 > 100 µM | K562 > 100 µM | KM-20L2 > 100 µM | KM12 > 100 µM | LOX IMVI > 100 µM | LXFL 529 > 100 µM | M14 > 100 µM | M19-MEL > 100 µM | MOLT-4 > 100 µM | Malme-3M > 100 µM | NCI-H226 > 100 µM | NCI-H23 > 100 µM | NCI-H460 > 100 µM | NCI-H522 > 100 µM | OVCAR-3 > 100 µM | OVCAR-4 > 100 µM | OVCAR-5 > 100 µM | RPMI-8226 > 100 µM | RXF 393 > 100 µM | RXF 631 > 100 µM | SF-268 > 100 µM | SF-295 > 100 µM | SF-539 > 100 µM | SK-MEL-28 > 100 µM | SK-MEL-2 > 100 µM | SK-MEL-5 > 100 µM | SK-OV-3 > 100 µM | SN12C > 100 µM | SNB-19 > 100 µM | SNB-75 92.3 µM | SNB-78 > 100 µM | SR > 100 µM | SW-620 > 100 µM | TK-10 > 100 µM | U-251 > 100 µM | UO-31 > 100 µM
> 100 µM: HCT-15
